According to ChEMBL document CHEMBL2074110, “Characterization, cDNA cloning, and functional expression of mouse ileal sodium-dependent bile acid transporter” (J Biochem, 1999):
Values belong to the molecule of their own block, whether it stands above or below them.

How the values were obtained:
Assay type in all cases: functional, cell-based
Conditions in all cases: ileocyte
[1] = target: T1, Ileal sodium/bile acid cotransporter (Mus musculus, UniProt P70172); test: TP_TRANSPORTER: inhibition of Taurocholate uptake (Taurocholate: 0.72 uM, Deoxycholate: a 100-fold excess) in isolated mouse ileocytes
T1 sequence (P70172 whole entry): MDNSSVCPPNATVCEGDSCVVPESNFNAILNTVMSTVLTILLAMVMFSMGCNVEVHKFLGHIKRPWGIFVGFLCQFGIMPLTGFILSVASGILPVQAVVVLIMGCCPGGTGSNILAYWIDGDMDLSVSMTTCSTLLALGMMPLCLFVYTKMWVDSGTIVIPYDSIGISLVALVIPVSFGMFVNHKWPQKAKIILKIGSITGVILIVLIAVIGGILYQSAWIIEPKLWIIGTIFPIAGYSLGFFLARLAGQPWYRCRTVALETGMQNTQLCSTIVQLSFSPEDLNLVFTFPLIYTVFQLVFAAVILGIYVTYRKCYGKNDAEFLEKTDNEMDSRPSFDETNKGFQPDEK

[2] = target: T1, Ileal sodium/bile acid cotransporter; test: TP_TRANSPORTER: inhibition of Taurocholate uptake (Taurocholate: 0.72 uM, CDCA: a 100-fold excess) in isolated mouse ileocytes
[3] = target: T1, Ileal sodium/bile acid cotransporter; test: TP_TRANSPORTER: inhibition of Taurocholate uptake (Taurocholate: 0.72 uM, Lithocholate: a 100-fold excess) in isolated mouse ileocytes
[4] = target: T1, Ileal sodium/bile acid cotransporter; test: TP_TRANSPORTER: inhibition of Taurocholate uptake (Taurocholate: 0.72 uM, GC: a 100-fold excess) in isolated mouse ileocytes

Activity [1]: inhibitor [+]
SMILES: C[C@H](CCC(=O)O)[C@H]1CC[C@H]2[C@@H]3CC[C@@H]4C[C@H](O)CC[C@]4(C)[C@H]3C[C@H](O)[C@]12C [DEOXYCHOLIC ACID]

SMILES: C[C@H](CCC(=O)O)[C@H]1CC[C@H]2[C@@H]3[C@H](O)C[C@@H]4C[C@H](O)CC[C@]4(C)[C@H]3CC[C@]12C [CHENODIOL]
Activity [2]: inhibitor [+]

SMILES: C[C@H](CCC(=O)O)[C@H]1CC[C@H]2[C@@H]3CC[C@@H]4C[C@H](O)CC[C@]4(C)[C@H]3CC[C@]12C [LITHOCHOLIC ACID]
Activity [3]: inhibitor [+]

Activity [4]: inhibitor [+]
SMILES: C[C@H](CCC(=O)NCC(=O)O)[C@H]1CC[C@H]2[C@@H]3[C@H](O)C[C@@H]4C[C@H](O)CC[C@]4(C)[C@H]3C[C@H](O)[C@]12C [GLYCOCHOLIC ACID]
